Measured values: patent US9340590B2 (priority 2011, dated 2016)
Positions of bridges follow the written chain, without caps; N, C: chain ends. Residues, ends and D or L forms follow the SMILES beside them.

What was measured:
Assay in all cases: cell-based
hNav1.5 = hNav1.5 (Homo sapiens, UniProt Q14524); conditions: IonWorks Quattro, use-dependent block, hNav1.5; read-out: IWQ Use Nav1.5
hNav1.7 = hNav1.7 (Homo sapiens, UniProt Q15858); format: cell-based; conditions: IonWorks Quattro, use-dependent block, hNav1.7; read-out: IWQ Use Nav1.7
Sequence of hNav1.7 (Q15858 whole entry, looked up): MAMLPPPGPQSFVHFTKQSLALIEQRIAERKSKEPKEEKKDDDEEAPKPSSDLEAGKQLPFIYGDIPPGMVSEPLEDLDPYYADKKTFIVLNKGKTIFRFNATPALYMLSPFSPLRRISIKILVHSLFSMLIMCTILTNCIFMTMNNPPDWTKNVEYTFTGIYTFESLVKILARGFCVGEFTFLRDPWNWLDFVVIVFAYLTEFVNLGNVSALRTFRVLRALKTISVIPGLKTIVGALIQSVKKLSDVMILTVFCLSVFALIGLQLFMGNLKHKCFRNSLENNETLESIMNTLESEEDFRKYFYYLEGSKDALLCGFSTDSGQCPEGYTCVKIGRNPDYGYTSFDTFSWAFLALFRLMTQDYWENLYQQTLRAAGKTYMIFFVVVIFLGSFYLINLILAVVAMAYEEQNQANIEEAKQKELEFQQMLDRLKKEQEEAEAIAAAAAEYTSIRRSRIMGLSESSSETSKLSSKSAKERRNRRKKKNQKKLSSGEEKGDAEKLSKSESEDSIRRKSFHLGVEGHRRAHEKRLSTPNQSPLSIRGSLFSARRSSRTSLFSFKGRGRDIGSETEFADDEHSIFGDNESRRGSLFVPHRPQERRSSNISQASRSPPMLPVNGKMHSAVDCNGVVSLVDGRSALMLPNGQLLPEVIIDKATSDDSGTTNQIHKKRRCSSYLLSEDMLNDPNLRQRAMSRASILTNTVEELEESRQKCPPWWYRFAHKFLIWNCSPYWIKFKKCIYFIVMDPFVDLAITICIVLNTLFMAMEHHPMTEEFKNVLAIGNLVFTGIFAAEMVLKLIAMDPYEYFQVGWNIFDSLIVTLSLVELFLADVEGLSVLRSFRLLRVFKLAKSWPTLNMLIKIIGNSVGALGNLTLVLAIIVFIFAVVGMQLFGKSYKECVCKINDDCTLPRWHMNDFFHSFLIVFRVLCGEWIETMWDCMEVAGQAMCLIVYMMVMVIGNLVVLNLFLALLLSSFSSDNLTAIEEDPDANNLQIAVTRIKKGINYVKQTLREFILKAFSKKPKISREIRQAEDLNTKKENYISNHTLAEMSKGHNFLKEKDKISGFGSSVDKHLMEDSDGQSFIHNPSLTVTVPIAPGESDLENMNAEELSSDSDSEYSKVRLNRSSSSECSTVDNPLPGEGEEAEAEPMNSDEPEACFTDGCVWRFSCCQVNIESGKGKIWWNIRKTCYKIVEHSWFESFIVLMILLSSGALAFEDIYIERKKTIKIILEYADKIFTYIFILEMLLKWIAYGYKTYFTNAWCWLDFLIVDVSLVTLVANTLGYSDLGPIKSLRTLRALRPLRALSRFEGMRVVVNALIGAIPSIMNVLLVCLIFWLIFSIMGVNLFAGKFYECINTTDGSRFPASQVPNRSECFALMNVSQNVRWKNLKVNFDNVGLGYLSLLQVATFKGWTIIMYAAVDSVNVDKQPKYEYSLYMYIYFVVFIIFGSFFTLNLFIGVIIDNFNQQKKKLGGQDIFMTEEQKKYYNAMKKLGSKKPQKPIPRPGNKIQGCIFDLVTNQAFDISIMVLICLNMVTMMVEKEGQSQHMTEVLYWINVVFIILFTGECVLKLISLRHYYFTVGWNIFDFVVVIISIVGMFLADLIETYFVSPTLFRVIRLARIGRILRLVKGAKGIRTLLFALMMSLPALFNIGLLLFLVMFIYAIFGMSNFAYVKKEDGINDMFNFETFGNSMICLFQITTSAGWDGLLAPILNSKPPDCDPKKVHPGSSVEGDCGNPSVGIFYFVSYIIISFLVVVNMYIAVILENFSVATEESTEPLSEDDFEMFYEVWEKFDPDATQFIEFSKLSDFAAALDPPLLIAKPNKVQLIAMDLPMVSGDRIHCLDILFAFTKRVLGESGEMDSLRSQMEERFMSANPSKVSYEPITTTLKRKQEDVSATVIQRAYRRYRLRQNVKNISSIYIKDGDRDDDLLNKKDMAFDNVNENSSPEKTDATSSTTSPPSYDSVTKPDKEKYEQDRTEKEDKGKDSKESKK

hNav1.3 = hNav1.3 (Homo sapiens, UniProt Q9NY46); conditions: IonWorks Quattro, use-dependent block, hNav1.3; read-out: IWQ Use Nav1.3
Sequence of hNav1.3 (Q9NY46 whole entry, looked up): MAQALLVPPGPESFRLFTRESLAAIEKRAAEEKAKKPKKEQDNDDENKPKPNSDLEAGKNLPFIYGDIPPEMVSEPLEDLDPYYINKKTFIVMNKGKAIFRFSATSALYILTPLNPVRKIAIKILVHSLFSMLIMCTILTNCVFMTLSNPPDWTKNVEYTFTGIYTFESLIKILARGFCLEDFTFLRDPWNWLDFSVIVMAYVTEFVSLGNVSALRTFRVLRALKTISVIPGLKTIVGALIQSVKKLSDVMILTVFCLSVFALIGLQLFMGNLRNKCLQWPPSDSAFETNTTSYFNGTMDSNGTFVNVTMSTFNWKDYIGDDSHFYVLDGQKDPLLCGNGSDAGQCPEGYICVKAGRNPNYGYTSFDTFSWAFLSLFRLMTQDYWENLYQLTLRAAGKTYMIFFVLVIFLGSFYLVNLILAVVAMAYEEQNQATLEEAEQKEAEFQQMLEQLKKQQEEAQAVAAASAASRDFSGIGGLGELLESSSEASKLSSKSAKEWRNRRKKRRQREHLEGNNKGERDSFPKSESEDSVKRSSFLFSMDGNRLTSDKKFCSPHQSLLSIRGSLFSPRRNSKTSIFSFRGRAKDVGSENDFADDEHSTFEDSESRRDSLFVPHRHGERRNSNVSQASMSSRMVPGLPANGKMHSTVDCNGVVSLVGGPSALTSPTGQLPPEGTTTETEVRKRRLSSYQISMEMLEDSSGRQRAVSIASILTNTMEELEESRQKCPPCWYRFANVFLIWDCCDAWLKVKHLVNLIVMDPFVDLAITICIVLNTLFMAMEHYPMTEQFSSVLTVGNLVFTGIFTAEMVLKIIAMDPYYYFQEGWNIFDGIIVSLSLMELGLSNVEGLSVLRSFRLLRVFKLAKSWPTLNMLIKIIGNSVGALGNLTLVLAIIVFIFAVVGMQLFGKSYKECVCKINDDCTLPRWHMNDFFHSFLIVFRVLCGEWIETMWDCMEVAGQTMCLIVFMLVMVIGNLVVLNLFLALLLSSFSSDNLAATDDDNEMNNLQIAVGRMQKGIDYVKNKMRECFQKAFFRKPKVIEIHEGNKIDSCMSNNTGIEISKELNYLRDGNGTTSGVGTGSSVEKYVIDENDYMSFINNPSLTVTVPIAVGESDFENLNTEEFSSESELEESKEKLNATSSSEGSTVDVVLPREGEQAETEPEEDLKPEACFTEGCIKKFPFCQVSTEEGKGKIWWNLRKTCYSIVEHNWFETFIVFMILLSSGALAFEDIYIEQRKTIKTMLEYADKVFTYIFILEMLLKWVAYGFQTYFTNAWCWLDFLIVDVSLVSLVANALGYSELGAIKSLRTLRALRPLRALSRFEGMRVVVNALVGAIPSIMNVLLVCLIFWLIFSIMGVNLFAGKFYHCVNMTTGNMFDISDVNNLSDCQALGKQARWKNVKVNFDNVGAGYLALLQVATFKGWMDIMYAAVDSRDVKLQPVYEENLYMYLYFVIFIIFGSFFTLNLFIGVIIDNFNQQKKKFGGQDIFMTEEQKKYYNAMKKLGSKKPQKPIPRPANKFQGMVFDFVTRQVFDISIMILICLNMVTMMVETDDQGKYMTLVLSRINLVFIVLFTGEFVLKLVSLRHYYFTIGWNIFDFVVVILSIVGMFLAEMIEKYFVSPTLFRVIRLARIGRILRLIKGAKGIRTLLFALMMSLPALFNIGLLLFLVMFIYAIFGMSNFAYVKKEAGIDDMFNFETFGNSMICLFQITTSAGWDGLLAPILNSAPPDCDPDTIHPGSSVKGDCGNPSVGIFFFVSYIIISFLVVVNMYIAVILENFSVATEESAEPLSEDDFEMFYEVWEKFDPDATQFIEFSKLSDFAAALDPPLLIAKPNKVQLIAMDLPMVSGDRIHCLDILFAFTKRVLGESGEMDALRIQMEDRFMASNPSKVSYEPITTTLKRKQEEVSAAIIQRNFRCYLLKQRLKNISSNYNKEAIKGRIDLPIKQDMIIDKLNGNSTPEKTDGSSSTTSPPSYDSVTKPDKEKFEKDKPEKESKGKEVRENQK

SMILES: CC[C@H](C)[C@@H]1NC(=O)[C@@H]2CSSC[C@@H]3NC(=O)[C@H](C(C)C)NC(=O)[C@H](CC(C)C)NC(=O)[C@H](CC(N)=O)NC(=O)[C@@H]4CCCN4C(=O)[C@H](CCCNC(=N)N)NC(=O)[C@H](CSSC[C@H](NC(=O)[C@@H](N)CC(=O)O)C(=O)N[C@@H](CC(C)C)C(=O)NCC(=O)N[C@@H](C)C(=O)N[C@@H](Cc4ccccc4)C(=O)N[C@@H](CCCNC(=N)N)C(=O)N[C@@H](CCCCN)C(=O)N2)NC(=O)[C@H](CSSC[C@@H](C(=O)N[C@@H](CCCCN)C(=O)N[C@@H](Cc2ccc(O)cc2)C(=O)N[C@H](C(=O)N[C@@H](Cc2ccccc2)C(=O)O)C(C)C)NC(=O)[C@H](Cc2c[nH]c4ccccc24)NC(=O)[C@H](CCCCN)NC(=O)[C@H](Cc2c[nH]cn2)NC(=O)[C@H]([C@@H](C)O)NC(=O)[C@H](CCCNC(=N)N)NC(=O)[C@H](CO)NC3=O)NC(=O)[C@H](CCCCN)NC(=O)[C@H](CC(=O)O)NC(=O)[C@H](CC(N)=O)NC(=O)[C@H](CC(=O)O)NC(=O)[C@@H]2CCCN2C1=O [compound 829] (H-DCLGAFRKCIPDNDKCCRPNLVCSRTHKWCKYVF-OH; disulfide 2-17, 9-23, 16-30)
- IC50 (hNav1.5): > 5 µM
- IC50 (hNav1.7): > 5 µM
- IC50 (hNav1.3): 2300 nM

SMILES: CC[C@H](C)[C@@H]1NC(=O)[C@@H]2CSSC[C@@H]3NC(=O)[C@H](C(C)C)NC(=O)[C@H](CC(C)C)NC(=O)[C@H](CC(N)=O)NC(=O)[C@@H]4CCCN4C(=O)[C@H](CCCNC(=N)N)NC(=O)[C@H](CSSC[C@H](NC(=O)[C@@H](N)CC(=O)O)C(=O)N[C@@H](CC(C)C)C(=O)NCC(=O)N[C@@H](C)C(=O)N[C@@H](Cc4ccccc4)C(=O)N[C@@H](CCCNC(=N)N)C(=O)N[C@@H](CCCCN)C(=O)N2)NC(=O)[C@H](CSSC[C@@H](C(=O)N[C@@H](CCCCN)C(=O)N[C@@H](Cc2ccc(O)cc2)C(=O)N[C@H](C(=O)N[C@@H](Cc2ccccc2)C(=O)O)C(C)C)NC(=O)[C@H](Cc2c[nH]c4ccccc24)NC(=O)[C@H](CC(C)C)NC(=O)[C@H](Cc2c[nH]cn2)NC(=O)[C@H]([C@@H](C)O)NC(=O)[C@H](CCCNC(=N)N)NC(=O)[C@H](CO)NC3=O)NC(=O)[C@H](CCCCN)NC(=O)[C@H](CC(=O)O)NC(=O)[C@H](CC(N)=O)NC(=O)[C@H](CC(=O)O)NC(=O)[C@@H]2CCCN2C1=O [compound 830] (H-DCLGAFRKCIPDNDKCCRPNLVCSRTHLWCKYVF-OH; disulfide 2-17, 9-23, 16-30)
- IC50 (hNav1.5): > 5 µM
- IC50 (hNav1.7): > 5 µM
- IC50 (hNav1.3): > 5000 nM

SMILES: CC[C@H](C)[C@@H]1NC(=O)[C@@H]2CSSC[C@@H]3NC(=O)[C@H](C(C)C)NC(=O)[C@H](CC(C)C)NC(=O)[C@H](CC(N)=O)NC(=O)[C@@H]4CCCN4C(=O)[C@H](CCCNC(=N)N)NC(=O)[C@H](CSSC[C@H](NC(=O)[C@@H](N)CC(=O)O)C(=O)N[C@@H](CC(C)C)C(=O)NCC(=O)N[C@@H](C)C(=O)N[C@@H](Cc4ccccc4)C(=O)N[C@@H](CCCNC(=N)N)C(=O)N[C@@H](CCCCN)C(=O)N2)NC(=O)[C@H](CSSC[C@@H](C(=O)N[C@@H](CCCCN)C(=O)N[C@@H](Cc2ccc(O)cc2)C(=O)N[C@H](C(=O)N[C@@H](Cc2ccccc2)C(=O)O)C(C)C)NC(=O)[C@H](Cc2c[nH]c4ccccc24)NC(=O)[C@H](CCSC)NC(=O)[C@H](Cc2c[nH]cn2)NC(=O)[C@H]([C@@H](C)O)NC(=O)[C@H](CCCNC(=N)N)NC(=O)[C@H](CO)NC3=O)NC(=O)[C@H](CCCCN)NC(=O)[C@H](CC(=O)O)NC(=O)[C@H](CC(N)=O)NC(=O)[C@H](CC(=O)O)NC(=O)[C@@H]2CCCN2C1=O [compound 831] (H-DCLGAFRKCIPDNDKCCRPNLVCSRTHMWCKYVF-OH; disulfide 2-17, 9-23, 16-30)
- IC50 (hNav1.5): > 5 µM
- IC50 (hNav1.7): > 5 µM
- IC50 (hNav1.3): 1600 nM
